Test results as given in US20250320290A1, “METHODS FOR TRIGGERING SAFETY KILLING […] USING A CD47-SIRPalpha BLOCKADE AGENT” (Sana Biotechnology, Inc., priority 2020, published 2025).
“Also recorded” adds a separate entry of the source.

Assays:
[1] = system: human HIP iPSCs (CyD clone 2G11); experiment: Cytosine deaminase kill switch: s.c. HIP-CyD iPSCs in NSG mice; assay type: in vivo
Experimental: (§1) Subcutaneous. Healthy male NSG mice were anesthetized via isoflurane inhalation anesthesia in a knockdown chamber. The anesthetized mice were removed from the chamber and placed in a supine position. The injection site (right inguinal area) was sprayed with 70% EtOH. Cells were injected subcutaneously proximal to the inguinal region.
(§2) Mice were anesthetized via isoflurane inhalation anesthesia and injected intraperitoneally (IP) with 250 μl luciferin (45.45 mg/ml). The mice were then positioned in a nose cone in the bioluminescence chamber (anesthesia was maintained at 1.5% with 500 ml oxygen/min). The mice were imaged for 180 seconds. A circle was drawn around the region of interest (ROI) giving a reading of photons/sec of emitted light.
Human HIP iPSCs (CyD clone 2G11) were injected subcutaneously into Group 1 NSG mice. Flucytosine LD (200 mg/kg) treatment was administered daily intraperitoneally. […] Group 1 mice treatment was as follows: 1×10^6 hiPSC HIP CyD clone 2G11 in diluted MG, S.C.; treatment=200 mg/kg/day Flucytosine, IP (DO).

[2] = system: human HIP iPSCs (clone 15; no kill switch); experiment: s.c. HIP iPSCs without kill switch in NSG mice treated with pro-drug; assay type: in vivo
Experimental: as §1, §2
Human HIP iPSCs (clone 15; no kill switch) were injected subcutaneously into Group 6 NSG mice. Flucytosine HD (500 mg/kg) treatment was administered daily intraperitoneally. As shown in FIG. 81A-B, human HIP iPSC survival appeared to be impaired by flucytosine HD although cells had no kill switch. The group was expanded for data validation (FIG. 81C-D and FIG. 81E-F). […]
Human HIP iPSCs (clone 15; no kill switch) were injected subcutaneously into Group 6 NSG mice. Ganciclovir HD (75 mg/kg) treatment was administered daily intraperitoneally starting Day 0. […]

[3] = intravenous, cited from earlier work
[4] = system: human HIP iPSCs (HSVTk clone 1-B10); experiment: HsVtk kill switch: s.c. HIP-HsVtk iPSCs in NSG mice; assay type: in vivo
Experimental: as §1, §2
Human HIP iPSCs (HSVTk clone 1-B10) were injected subcutaneously into Group 1 NSG mice. Ganciclovir LD (50 mg/kg) treatment was performed daily intraperitoneally. […] Mice were checked during a 44D follow up. Group 1 mice treatment was as follows: 1×10^6 hiPSCs HIP HSVtk clone 1-B10 luc+ in diluted MG, S.C.; treatment was 50 mg/kg/day Ganciclovir, IP (DO).

mock transfected T cells = experiment: Innate killing by real-time cell analysis, mock transfected T cells; assay type: cell-based, human; conditions: in the presence of the antibody
human HIP iPSCs [5] = experiment: In vitro killing of human HIP iPSCs by human NK cells and macrophages with anti-CD47 antibody; assay type: cell-based; conditions: 100 μg/ml antibody
human HIP iPSCs [6] = experiment: Subcutaneous human HIP iPSCs in NSG mice with adoptive transfer of human NK cells, BLI; assay type: in vivo
Experimental: as §1
The mice were then positioned in a nose cone in the bioluminescence chamber (anesthesia was maintained at 1.5% with 500 ml oxygen/min). The mice were imaged for 180 seconds. A circle was drawn around the region of interest (ROI) giving a reading of photons/sec of emitted light.
IP dosing. The antibody (100 μl) was injected into the peritoneal cavity from the ventral surface by piercing the skin and muscle layers.
SC dosing. Mice were anesthetized via isoflurane inhalation anesthesia and placed in a supine position. The injection site (right inguinal area) was sprayed with 70% EtOH and the antibody (100 μl) was injected into the area of the implanted cells.

[7] = system: HIP CD19CAR-T cells (B2M−/−, CIITA−/−, TRAC−/−, CD19-specific CAR-CD47 T cells); experiment: Innate killing (NK cells, macrophages) by real-time cell analysis, HIP CAR-T cells; assay type: cell-based, human; conditions: pretreated with CD47 blocking antibody, E:T 1:1
Experimental: Briefly, T-cells were plated in CD19^+ tumor cell specific media. After cell index value reached 0.7, human NK cells or human macrophages were added with an E:T ratio of 1:1 with human IL-2 for NK cells and without IL-2 for macrophages. […] Data were standardized and analyzed with the real-time cell analysis instrument software.
After about 48 hours, T-cells were collected and stained with components of a live/dead cell viability staining assay. Briefly, cells were stained with calcein AM and ethidium homodimer-1 according to the manufacturer's protocol. The analysis was performed by flow cytometry and the results were expressed as percentage of dead cells.

## Nc1[nH]c(=O)ncc1F [Flucytosine]
[1]; HD 500 mg/kg daily intraperitoneally from D0
  time to killing of HIP-CyD iPSCs: 16 to 32 days
[1]; HD 500 mg/kg daily intraperitoneally from Day 13
  time to killing of HIP-CyD iPSCs after starting treatment: 3 to 11 days
[1]; LD 200 mg/kg daily intraperitoneally from D0
  time to killing of HIP-CyD iPSCs: 16 to 44 days
[1]; LD 200 mg/kg daily intraperitoneally from Day 13
  time to killing of HIP-CyD iPSCs after starting treatment: 3 to 11 days
[1]; treatment from D0
  benefit of HD as compared to LD: No major benefit
[1]; treatment from Day 13
  benefit of HD compared to LD: No benefit
[2]; Flucytosine HD 500 mg/kg daily intraperitoneally
  survival of HIP iPSCs without kill switch: impaired

## TTI-621: fusion protein of N-terminal V domain of human SIRPα fused to human IgG1 Fc region (SEQ ID NO:133)
[3]; monotherapy, relapsed/refractory hematologic malignancies and selected solid tumors
  maximum tolerated dose (MTD): 0.2 mg/kg
[3]; phase 1
  tolerability: well tolerated

## Nc1nc(O)c2ncn(COC(CO)CO)c2n1 [Ganciclovir]
[4]; HD 75 mg/kg daily intraperitoneally from D0
  time to killing of HIP-HsVtk iPSCs: 12 to 16 days
[4]; HD 75 mg/kg daily intraperitoneally from Day 13
  time to killing of HIP-HsVtk iPSCs after start of treatment: ≤ 7 days
[4]; LD 50 mg/kg daily intraperitoneally from D0
  time to killing of HIP-HsVtk iPSCs: 12 to 24 days
[4]; LD 50 mg/kg daily intraperitoneally from Day 13
  time to killing of HIP-HsVtk iPSCs after start of treatment: ≤ 7 days
[4]; treatment from D0
  benefit of HD: slightly beneficial
[4]; treatment from Day 13
  benefit of HD compared to LD: No obvious benefit
[2]; Ganciclovir HD 75 mg/kg daily intraperitoneally from Day 0
  impact on HIP iPSCs without kill switch: no killing; also recorded: no impact

B1: magrolimab: anti-CD47 antibody magrolimab (Hu5F9-G4) (Forty Seven, Inc.; Gilead Sciences, Inc.) (antibody, chains of the INN, looked up, V domains shown)
VH: QVQLVQSGAEVKKPGASVKVSCKASGYTFTNYNMHWVRQAPGQRLEWMGTIYPGNDDTSYNQKFKDRVTITADTSASTAYMELSSLRSEDTAVYYCARGGYRAMDYWGQGTLVTVSS
VL: DIVMTQSPLSLPVTPGEPASISCRSSQSIVYSNGNTYLGWYLQKPGQSPQLLIYKVSNRFSGVPDRFSGSGSGTDFTLKISRVEAEDVGVYYCFQGSHVPYTFGQGTKLEIK
Mock transfected T cells
  killing of mock transfected T cells by NK cell and macrophages: not killed
Human HIP iPSCs [5]
  killing of human HIP iPSCs by human NK cells: killing
  killing of human HIP iPSCs by human macrophages: killing
Human HIP iPSCs [6]; magrolimab D0-D10, 5×10^4 iPSCs, 1×10^6 NK cells
  killing of HIP iPSCs: killing of HIP iPSCs
Human HIP iPSCs [6]; magrolimab stopped after D10, 6-month follow up
  re-appearance of iPSCs: didn't re-appear
[7]
  killing of HIP CAR-T cells by macrophages and NK cells on CD47 blocking: susceptible to macrophage and NK cell killing
[7]; listed as macrolimab
  killing of HIP CAR-T cells by macrophages and NK cells on CD47 blocking: induced killing
